These results are taken from publication PMC8430704, “Novel Sulfonamide-Based Carbamates as Selective Inhibitors of BChE” (International Journal of Molecular Sciences, 2021).

A word on the IC50: it is the midpoint of a concentration-inhibition curve. The low end stands for higher potency, the high end for lower potency.

In series [1] the target is T1, BChE from equine serum (Equus caballus, UniProt P81908).
T1 construct: butyrylcholinesterase from equine serum; from tissue; host or cells: equine serum
T1 sequence (P81908 whole entry): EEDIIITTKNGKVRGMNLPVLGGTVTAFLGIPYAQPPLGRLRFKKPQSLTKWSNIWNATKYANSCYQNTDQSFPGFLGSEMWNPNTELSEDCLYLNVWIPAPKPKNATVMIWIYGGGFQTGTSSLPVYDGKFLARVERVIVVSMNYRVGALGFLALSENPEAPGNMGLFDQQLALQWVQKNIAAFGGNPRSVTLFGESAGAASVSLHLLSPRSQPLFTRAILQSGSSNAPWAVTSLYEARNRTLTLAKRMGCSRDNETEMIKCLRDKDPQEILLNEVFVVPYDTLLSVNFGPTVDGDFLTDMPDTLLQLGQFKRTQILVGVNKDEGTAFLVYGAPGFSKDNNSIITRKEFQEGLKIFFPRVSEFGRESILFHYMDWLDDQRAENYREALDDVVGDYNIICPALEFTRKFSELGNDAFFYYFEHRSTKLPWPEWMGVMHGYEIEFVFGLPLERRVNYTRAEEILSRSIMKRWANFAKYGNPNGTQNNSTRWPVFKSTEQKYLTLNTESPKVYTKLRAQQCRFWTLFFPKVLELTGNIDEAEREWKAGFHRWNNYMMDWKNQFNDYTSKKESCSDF
Description: BChE inhibition, modified Ellman's method. The series is classed as biochemical. As to conditions: for IC50: IC50 (µM) BChE, eqBChE, modified Ellman's method, 25 °C, PBS pH 7.4, mean ± SD, n = 3; for SI (selectivity index) = IC50 (AChE)/IC50 (BChE): value over 1 = more potent inhibition of BChE; for fold higher inhibitory activity against BChE than rivastigmine: ratio of BChE IC50 vs RIV. The procedure:
Based on IC50 values for both cholinesterases, selectivity indexes (SI) as the ratio of IC50 for AChE/IC50 for BChE to quantify the preference for BChE were calculated.
(§1) The ability of all synthesized derivatives to inhibit eeAChE (acetylcholinesterase from electric eel, Electrophorus electricus) and eqBChE (butyrylcholinesterase from equine serum) was determined in vitro using the modified Ellman´s method. […] Ellmanʼs method is widely used for measuring cholinesterase activity and the efficiency of cholinesterase inhibitors. The principle of this simple method is the determination of the SH and -S-S- groups. The activity of the cholinesterase is measured indirectly by quantifying the concentration of 2-nitro-5-sulfanylbenzoic acid ion formed in the reaction between 5,5′-dithiobis-2-nitrobenzoic acid (DTNB) and thiocholine (i.e., the product of the acetylthiocholine hydrolysis catalysed by cholinesterase).
(§2) All studied compounds were dissolved in DMSO (concentration 0.01 M) and diluted in demineralized water (concentration 0.001 M). The ability of the studied compounds to inhibit eeAChE and eqBChE was determined using modified Ellman´s method at 25 °C in the presence of phosphate buffered saline (PBS, 0.1 M, pH 7.4) in a glass cuvette with 1 cm optical path. The enzyme activity in the total reaction mixture (2 mL) was 0.2 U/mL; the concentration of acetylthiocholine (ATCh) or butyrylthiocholine (BTCh) was 40 μM; and the concentration of DTNB was 0.1 mM for all reactions. The inhibitory activity of the studied derivatives was evaluated based on the ratio v0/vi (v0 is the rate of ATCh or BTCh hydrolysis in the absence of the inhibitor, vi is the rate of ATCh or BTCh hydrolysis in the presence of the inhibitor). The IC50 value was obtained from the dependence v0/vi on the concentration of the tested compound (inhibitor).
(§3) The determination of v0 was done as follows. Into the cuvette, PBS (0.1 M, pH 7.4), DTNB, and ATCh (BTCh) were placed. The enzymatic reaction was started by adding the enzyme. […] The measurement was performed at least in triplicate, and average v0 was determined.
(§4) Then, vi (for the given concentration of inhibitor) was determined. Into the cuvette, DTNB, ATCh (BTCh), a chosen volume of the suitably diluted inhibitor (to achieve the required concentration of inhibitor in the total reaction mixture), and a certain volume of PBS (to achieve the total volume of the reaction mixture 2 mL after adding the enzyme) were placed. The enzymatic reaction was started by adding the enzyme. […] Five different concentrations of the inhibitor were used, and each measurement was performed at least in duplicate.
(In general: DTNB colorimetry detects thiols as they appear.)

Series [2] concerns the target T2, AChE from electric eel (Electrophorus electricus, UniProt O42275).
T2 construct: from tissue
Description: AChE inhibition, modified Ellman's method. Format: biochemical. The procedure:
as §1, §2, §3, §4

A short description of series [3]: Preliminary stability test (decomposition in buffer, HPLC). The procedure: pH (6, 7.4, 8). Measurement of these degradations was performed by HPLC in reverse phase
acetonitrile/water (98:2). The compound was stirred in a tempered buffer (37 °C) of appropriate
pH and a sample was taken for HPLC analysis at a specified time.

Series [4] deals with T1, BChE from equine serum. Briefly: Carbamylation of BChE (progressive inhibition kinetics). Format: biochemical. As to conditions: from kobs vs. inhibitor concentration.
Description: The evaluation of BChE carbamylation was performed on the basis of the measured dependences % residual activity vs. time in the presence of appropriate concentration of inhibitor. […] These dependences were evaluated by non-linear regression and the pseudo-first-order rate constants kobs for progressive inhibition at several inhibitor concentrations were obtained.
The decrease in enzyme activity over time due to inhibitor binding was monitored by the Ellman´s method. Pursuant the procedure described in Carletti [86], the determination was performed subsequently: the reaction mixture containing PBS (0.1 M, pH 7.4), BChE and chosen inhibitor in an appropriate concentration was prepared and intensively stirred. In given times DTNB and BTCh were added to the sample withdrawn from stirred reaction mixture, quickly mixed and absorbance was measured. Consequently, the enzyme activity was determined. Based on knowledge of enzyme activity in the absence of the inhibitor (i.e., 100% activity), the percentages of residual activity in presence of the inhibitor were calculated. Then the dependence of percentage of residual activity vs. time was constructed [87]. By nonlinear regression of these dependences the values of kobs were obtained and subsequently rate constants for carbamylation were calculated. All experiments were performed in duplicate at least.
Series [5] addresses T1, BChE from equine serum. Description: Reactivation (decarbamylation) of inhibited BChE. The settings on record: BChE from equine serum inhibited ≥ 95%, dilution into PBS. The series is classed as biochemical. The procedure:
The procedure is described in Section 3.4.
Monitoring of enzyme reactivation was performed as follows. […] The excess inhibitor was removed by dilution into PBS. Samples were withdrawn at successive time points and assayed to measure recovery of enzymatic activity (Ellman´s method was used). […] All experiments were performed in duplicate at least.

In series [6] the test system is human BChE. The settings on record: cited from earlier work.
In series [7] the test system is human BChE. As to conditions: cited from earlier work. The source holds these as a separate data set.

T2 sequence (O42275 24-633): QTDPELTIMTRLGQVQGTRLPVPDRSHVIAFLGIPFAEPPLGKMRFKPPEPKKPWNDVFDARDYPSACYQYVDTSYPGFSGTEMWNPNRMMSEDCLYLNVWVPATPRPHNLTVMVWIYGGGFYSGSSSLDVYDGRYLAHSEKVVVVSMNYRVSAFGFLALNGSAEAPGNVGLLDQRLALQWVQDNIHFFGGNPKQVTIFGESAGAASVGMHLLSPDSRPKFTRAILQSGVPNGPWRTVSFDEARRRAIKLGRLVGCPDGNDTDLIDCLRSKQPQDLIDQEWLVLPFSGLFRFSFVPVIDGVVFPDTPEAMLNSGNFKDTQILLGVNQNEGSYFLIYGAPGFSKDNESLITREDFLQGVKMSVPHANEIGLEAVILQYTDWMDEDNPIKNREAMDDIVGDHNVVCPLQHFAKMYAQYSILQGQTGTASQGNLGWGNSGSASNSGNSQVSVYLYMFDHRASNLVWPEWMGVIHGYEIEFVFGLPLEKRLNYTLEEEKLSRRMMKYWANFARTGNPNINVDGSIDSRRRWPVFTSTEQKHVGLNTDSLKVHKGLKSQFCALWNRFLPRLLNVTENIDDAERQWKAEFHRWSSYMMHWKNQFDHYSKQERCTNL

In the case of `CC(C)C[C@@H](CS(=O)(=O)NCc1ccc(F)c(F)c1)NC(=O)OCc1ccccc1` [Compound 5l, Benzyl {(2S)-1-[(3,4-difluorobenzyl)sulfamoyl]-4-methylpentan-2-yl}carbamate], in series [1], the IC50 worked out at 55.6 ± 1.38 µM and the “SI (selectivity index) = IC50 (AChE)/IC50 (BChE)” value (shortened to “SI (selectivity index) = IC50”) came to 1.67. For the same compound, the half-maximal inhibitory concentration (IC50) in series [2] was 92.9 ± 2.47 µM.

For `CC(C)C[C@@H](CS(=O)(=O)NCc1ccco1)NC(=O)OCc1ccccc1` [Compound 5m, Benzyl {(2S)-1-[(furan-2-ylmethyl)sulfamoyl]-4-methylpentan-2-yl}carbamate], the 50% inhibitory concentration (IC50) came out at 19.99 ± 0.17 µM in series [1] and 131.8 ± 0.42 µM in series [2].

Take `O=C(N[C@@H](Cc1ccccc1)CS(=O)(=O)N[C@@H]1CCCO1)OCc1ccccc1` [Compound 5i, Benzyl {(2S)-1-phenyl-3-[(2S)-tetrahydrofuran-2-ylsulfamoyl]propan-2-yl}carbamate]: in series [1], the IC50 came to 112 ± 3.41 µM and the “SI (selectivity index) = IC50” value is reported as 0.55. The same compound had a concentration for half-maximal inhibition (IC50) in series [2] of 61.7 ± 1.47 µM.

`O=C(N[C@@H](Cc1ccccc1)CS(=O)(=O)Nc1ccc(Cl)c(Cl)c1)OCc1ccccc1` [Compound 5g, Benzyl {(2S)-1-[(3,4-dichlorophenyl)sulfamoyl]-3-phenylpropan-2-yl}carbamate]: in series [1], the 50% inhibitory concentration (IC50) worked out at 12.6 ± 0.31 µM and the “SI (selectivity index) = IC50” value is listed as 6.25. Also, in series [2], half-maximal inhibition (IC50) was put at 78.83 ± 0.63 µM.

Regarding `C[C@@H](CS(=O)(=O)NCc1ccccc1)NC(=O)OCc1ccccc1` [Compound 5a, Benzyl [(2S)-1-(benzylsulfamoyl)propan-2-yl]carbamate], the half-maximal inhibitory concentration (IC50) in series [1] was 100 ± 4.26 µM; in series [2] it was 90.6 ± 5.7 µM. The “SI (selectivity index) = IC50” value in series [1] is 0.90.

As to `CC(C)C[C@@H](CS(=O)(=O)Nc1ccccc1)NC(=O)OCc1ccccc1` [Compound 5d, Benzyl [(2S)-4-methyl-1-(phenylsulfamoyl)pentan-2-yl]carbamate], the IC50 in series [1] stood at 16.54 ± 0.1 µM; in series [2], 55.6 ± 1.38 µM. For the same compound, the “SI (selectivity index) = IC50” value in series [1] is on record as 3.36.

Turning to `CC(C)C[C@@H](CS(=O)(=O)NCCc1ccccc1)NC(=O)OCc1ccccc1` [Compound 5f, Benzyl {(2S)-4-methyl-1-[(2-phenylethyl)sulfamoyl]pentan-2-yl}carbamate], in series [1], the IC50 was determined as 15.3 ± 0.38 µM and the “SI (selectivity index) = IC50” value was determined as 7.50. Also, 115 ± 6.22 µM corresponded to half-maximal inhibition in series [2] (IC50).

Turning to `COc1ccccc1CNS(=O)(=O)C[C@H](CC(C)C)NC(=O)OCc1ccccc1` [Compound 5k, Benzyl {(2S)-1-[(2-methoxybenzyl)sulfamoyl]-4-methylpentan-2-yl}carbamate], in series [2], the IC50 worked out at 150 ± 3.82 µM. The starting material remaining in series [3] (buffer pH 6, 37 °C, after 6 hrs) amounted to 13%; in series [3] (buffer pH 7.4, 37 °C, 48 hours) it was 36%; in series [3] (buffer pH 8, 37 °C, 4 hours), 5%. The “substance decomposed in the first hour” value in series [3] (buffer pH 6, 37 °C, first hour) is 75%.

As for `CCCNS(=O)(=O)C[C@H](CC(C)C)NC(=O)OCc1ccccc1` [Compound 5e, Benzyl [(2S)-4-methyl-1-(propylsulfamoyl)pentan-2-yl]carbamate], in series [1], inhibition was half-maximal at 58.9 ± 1.88 µM (IC50) and the “SI (selectivity index) = IC50” value was found to be 1.84. In series [2], this compound came in with an IC50 of 108 ± 2.39 µM.

With `O=C(N[C@@H](Cc1ccccc1)CS(=O)(=O)Nc1ccc2c(c1)OCO2)OCc1ccccc1` [Compound 5h, Benzyl [(2S)-1-(1,3-benzodioxol-5-ylsulfamoyl)-3-phenylpropan-2-yl]carbamate], in series [1], the half-inhibitory concentration (IC50) was 11.5 ± 0.28 µM and the “SI (selectivity index) = IC50” value is 5.32. The IC50 in series [2] came to 61.39 ± 0.47 µM.

With `CC(C)C[C@@H](CS(=O)(=O)NCc1ccccc1)NC(=O)OCc1ccccc1` [Compound 5c, Benzyl [(2S)-1-(benzylsulfamoyl)-4-methylpentan-2-yl]carbamate], in series [1], half-maximal inhibition (IC50) required 8.52 ± 0.32 µM and the “fold higher inhibitory activity against BChE than rivastigmine” value is “approximately 5 fold”. Further, in series [2], the concentration for half-maximal inhibition (IC50) is 91.8 ± 4.89 µM.

For the compound `CC(C)C[C@@H](CS(=O)(=O)NCc1ccc(Cl)cc1)NC(=O)OCc1ccccc1` [Compound 5j, Benzyl {(2S)-1-[(4-chlorobenzyl)sulfamoyl]-4-methylpentan-2-yl}carbamate], in series [1], the IC50 came out at 6.57 ± 0.12 µM and the “fold higher inhibitory activity against BChE than rivastigmine” value is listed as “approximately 5 fold”. Also, in series [4], the “apparent bimolecular rate constant (ki) of carbamylation” value was determined as 65.04 ± 3.21 M⁻¹ min⁻¹. For the same compound, in series [5], the “reactivation of BChE after 24 h” value stood at 37%. Also, in series [2], the midpoint of inhibition, the IC50, lay at 67.47 ± 0.37 µM.

As to `CC(C)C[C@@H](CS(=O)(=O)Nc1ccc(Cl)c(Cl)c1)NC(=O)OCc1ccccc1` [Compound 5n, Benzyl {(2S)-1-[(3,4-dichlorophenyl)sulfamoyl]-4-methylpentan-2-yl}carbamate], in series [1], the concentration for half-maximal inhibition (IC50) was 13.5 ± 0.51 µM and the “SI (selectivity index) = IC50” value is 7.04. This compound registered an IC50 in series [2] of 95.1 ± 2.77 µM.

For the compound `CCN(C)C(=O)Oc1cccc([C@H](C)N(C)C)c1` [RIV, rivastigmine], the “reactivation of human BChE after 24 h” value in series [6] (24 h) was < 10%. The “bimolecular rate constant for the carbamylation” value in series [7] was 90000 M⁻¹ min⁻¹.

In the case of `O=C(N[C@@H](Cc1ccccc1)CS(=O)(=O)NCc1ccccc1)OCc1ccccc1` [Compound 5b, Benzyl [(2S)-1-(benzylsulfamoyl)-3-phenylpropan-2-yl]carbamate], in series [1], half-maximal inhibition (IC50) was put at 86.1 ± 1.91 µM and the “SI (selectivity index) = IC50” value worked out at 0.89. In series [2], this compound gave an IC50 of 76.9 ± 1.52 µM.

Turning to `CCN(C)C(=O)Cl` [EMCC, N,N-ethylmethylcarbaryl chloride], the “reactivation of human BChE upon dilution” value in series [6] (upon dilution) is “complete and rapid reactivation”.
